From the NIST ThermoML archive (doi:10.1021/je800110r)
Numbers after ± are expanded uncertainties.

Conditions: 303.16 K, Liquid, Vibrating tube method

CCCCCCCCCC [decane]
Conditions | mass density [kg/m3]
14288 kPa | 733.4 ± 2
14319 kPa | 733.4 ± 2
14353 kPa | 733.4 ± 2
14376 kPa | 733.5 ± 2
14407 kPa | 733.3 ± 2
14434 kPa | 733.6 ± 2
14457 kPa | 733.5 ± 2
14493 kPa | 733.5 ± 2
14524 kPa | 733.5 ± 2
14547 kPa | 733.5 ± 2
14586 kPa | 733.6 ± 2
14617 kPa | 733.7 ± 2
14640 kPa | 733.8 ± 2
14673 kPa | 733.7 ± 2
14705 kPa | 733.6 ± 2
14734 kPa | 733.7 ± 2
14767 kPa | 733.7 ± 2
14792 kPa | 733.7 ± 2
14822 kPa | 733.6 ± 2
14848 kPa | 733.7 ± 2
14871 kPa | 733.8 ± 2
14896 kPa | 733.8 ± 2
14923 kPa | 733.7 ± 2
14942 kPa | 734 ± 2
14976 kPa | 734 ± 2
14997 kPa | 733.8 ± 2
15016 kPa | 733.9 ± 2
15041 kPa | 733.8 ± 2
15066 kPa | 734 ± 2
15088 kPa | 733.9 ± 2
15110 kPa | 734 ± 2
15133 kPa | 734 ± 2
15151 kPa | 734 ± 2
15180 kPa | 734 ± 2
15209 kPa | 734.1 ± 2
15228 kPa | 734.1 ± 2
15257 kPa | 734.1 ± 2
15283 kPa | 733.9 ± 2
15302 kPa | 734.1 ± 2
15329 kPa | 734.1 ± 2
15355 kPa | 734.2 ± 2
15378 kPa | 734.3 ± 2
15404 kPa | 734.2 ± 2
15434 kPa | 734.3 ± 2
15454 kPa | 734.3 ± 2
15481 kPa | 734.3 ± 2
15504 kPa | 734.2 ± 2
15524 kPa | 734.3 ± 2
15557 kPa | 734.3 ± 2
15584 kPa | 734.2 ± 2
15605 kPa | 734.4 ± 2
15639 kPa | 734.4 ± 2
15669 kPa | 734.3 ± 2
15690 kPa | 734.4 ± 2
15720 kPa | 734.3 ± 2
15744 kPa | 734.5 ± 2
15769 kPa | 734.4 ± 2
15790 kPa | 734.3 ± 2
15814 kPa | 734.5 ± 2
15838 kPa | 734.6 ± 2
15867 kPa | 734.4 ± 2
15889 kPa | 734.5 ± 2
15918 kPa | 734.5 ± 2
15947 kPa | 734.5 ± 2
15968 kPa | 734.6 ± 2
15997 kPa | 734.6 ± 2
16029 kPa | 734.6 ± 2
16050 kPa | 734.6 ± 2
16076 kPa | 734.7 ± 2
16098 kPa | 734.8 ± 2
16123 kPa | 734.7 ± 2
16149 kPa | 734.7 ± 2
16172 kPa | 734.7 ± 2
16206 kPa | 734.6 ± 2
16237 kPa | 734.7 ± 2
16261 kPa | 734.7 ± 2
16288 kPa | 734.7 ± 2
16311 kPa | 734.9 ± 2
16331 kPa | 734.8 ± 2
16355 kPa | 734.9 ± 2
16372 kPa | 734.9 ± 2
16395 kPa | 734.8 ± 2
16413 kPa | 734.8 ± 2
16443 kPa | 734.9 ± 2
16470 kPa | 735 ± 2
16490 kPa | 735.1 ± 2
16511 kPa | 734.9 ± 2
16531 kPa | 735.1 ± 2
16553 kPa | 735 ± 2
16574 kPa | 734.9 ± 2
16600 kPa | 735 ± 2
16618 kPa | 735.1 ± 2
16642 kPa | 735 ± 2
16661 kPa | 734.8 ± 2
16691 kPa | 735.2 ± 2
16715 kPa | 735 ± 2
16733 kPa | 735.2 ± 2
16758 kPa | 735.1 ± 2
16785 kPa | 735.2 ± 2
16800 kPa | 735.2 ± 2
16831 kPa | 735.2 ± 2
16853 kPa | 735.2 ± 2
16878 kPa | 735.1 ± 2
16902 kPa | 735.2 ± 2
16924 kPa | 735.2 ± 2
16940 kPa | 735.2 ± 2
16968 kPa | 735.3 ± 2
16994 kPa | 735.3 ± 2
17016 kPa | 735.3 ± 2
17041 kPa | 735.4 ± 2
17063 kPa | 735.4 ± 2
17084 kPa | 735.4 ± 2
17107 kPa | 735.3 ± 2
17129 kPa | 735.4 ± 2
17149 kPa | 735.5 ± 2
17181 kPa | 735.4 ± 2
17207 kPa | 735.3 ± 2
17225 kPa | 735.6 ± 2
17252 kPa | 735.5 ± 2
17278 kPa | 735.6 ± 2
17298 kPa | 735.5 ± 2
17331 kPa | 735.5 ± 2
17354 kPa | 735.5 ± 2
17377 kPa | 735.5 ± 2
17400 kPa | 735.5 ± 2
17419 kPa | 735.5 ± 2
17449 kPa | 735.7 ± 2
17479 kPa | 735.7 ± 2
17503 kPa | 735.7 ± 2
17533 kPa | 735.6 ± 2
17557 kPa | 735.7 ± 2
17581 kPa | 735.7 ± 2
17601 kPa | 735.8 ± 2
17625 kPa | 735.8 ± 2
17645 kPa | 735.7 ± 2
17673 kPa | 735.9 ± 2
17693 kPa | 735.8 ± 2
17724 kPa | 735.9 ± 2
17745 kPa | 735.8 ± 2
17773 kPa | 735.9 ± 2
17801 kPa | 735.9 ± 2
17825 kPa | 735.9 ± 2
17850 kPa | 735.9 ± 2
17878 kPa | 735.9 ± 2
17909 kPa | 736 ± 2
17931 kPa | 735.9 ± 2
17959 kPa | 736 ± 2
17977 kPa | 736.1 ± 2
18013 kPa | 736 ± 2
18041 kPa | 736.1 ± 2
18063 kPa | 736.1 ± 2
18092 kPa | 736.1 ± 2
18122 kPa | 736 ± 2
18144 kPa | 736.1 ± 2
18169 kPa | 736.2 ± 2
18195 kPa | 736.2 ± 2
18227 kPa | 736.2 ± 2
18253 kPa | 736.1 ± 2
18275 kPa | 736.3 ± 2
18304 kPa | 736.2 ± 2
18334 kPa | 736.3 ± 2
18356 kPa | 736.2 ± 2
18390 kPa | 736.2 ± 2
18413 kPa | 736.4 ± 2
18436 kPa | 736.4 ± 2
18466 kPa | 736.3 ± 2
18489 kPa | 736.3 ± 2
18523 kPa | 736.4 ± 2
18546 kPa | 736.4 ± 2
18569 kPa | 736.4 ± 2
18595 kPa | 736.4 ± 2
18614 kPa | 736.5 ± 2
18641 kPa | 736.5 ± 2
18664 kPa | 736.5 ± 2
18699 kPa | 736.5 ± 2
18738 kPa | 736.5 ± 2
18762 kPa | 736.5 ± 2
18789 kPa | 736.5 ± 2
18820 kPa | 736.6 ± 2
18843 kPa | 736.6 ± 2
18883 kPa | 736.7 ± 2
18914 kPa | 736.5 ± 2
18938 kPa | 736.8 ± 2
18962 kPa | 736.7 ± 2
18998 kPa | 736.7 ± 2
19031 kPa | 736.7 ± 2
19060 kPa | 736.7 ± 2
19085 kPa | 736.7 ± 2
19122 kPa | 736.9 ± 2
19159 kPa | 736.8 ± 2
19184 kPa | 736.8 ± 2
19223 kPa | 736.9 ± 2
19247 kPa | 736.9 ± 2
19269 kPa | 736.8 ± 2
19302 kPa | 736.9 ± 2
19335 kPa | 737 ± 2
19360 kPa | 737 ± 2
19383 kPa | 737 ± 2
19412 kPa | 737 ± 2
19434 kPa | 737 ± 2
19456 kPa | 737 ± 2
19477 kPa | 736.9 ± 2
19498 kPa | 737.1 ± 2
19522 kPa | 737.1 ± 2
19544 kPa | 737.2 ± 2
19566 kPa | 737.2 ± 2
19587 kPa | 737.1 ± 2
19612 kPa | 737 ± 2
19634 kPa | 737.2 ± 2
19656 kPa | 737.1 ± 2
19678 kPa | 737.2 ± 2
19703 kPa | 737.3 ± 2
19725 kPa | 737.3 ± 2
19748 kPa | 737.3 ± 2
19771 kPa | 737.2 ± 2
19794 kPa | 737.2 ± 2
19817 kPa | 737.2 ± 2
19841 kPa | 737.2 ± 2
19862 kPa | 737.2 ± 2
19880 kPa | 737.3 ± 2
19906 kPa | 737.3 ± 2
19925 kPa | 737.4 ± 2
19938 kPa | 737.4 ± 2
19956 kPa | 737.4 ± 2
19976 kPa | 737.4 ± 2
19997 kPa | 737.4 ± 2
20013 kPa | 737.5 ± 2
20034 kPa | 737.3 ± 2
20052 kPa | 737.5 ± 2
20073 kPa | 737.5 ± 2
20089 kPa | 737.5 ± 2
20104 kPa | 737.4 ± 2
20123 kPa | 737.5 ± 2
20143 kPa | 737.6 ± 2
20164 kPa | 737.5 ± 2
20180 kPa | 737.6 ± 2
20201 kPa | 737.5 ± 2
20222 kPa | 737.6 ± 2
20238 kPa | 737.6 ± 2
20259 kPa | 737.6 ± 2
20280 kPa | 737.6 ± 2
20293 kPa | 737.7 ± 2
20307 kPa | 737.6 ± 2
20323 kPa | 737.7 ± 2
20347 kPa | 737.7 ± 2
20369 kPa | 737.7 ± 2
20396 kPa | 737.7 ± 2
20420 kPa | 737.6 ± 2
20439 kPa | 737.7 ± 2
20461 kPa | 737.7 ± 2
20477 kPa | 737.6 ± 2
20501 kPa | 737.8 ± 2
20529 kPa | 737.7 ± 2
20545 kPa | 737.7 ± 2
20567 kPa | 737.8 ± 2
20586 kPa | 737.9 ± 2
20606 kPa | 737.8 ± 2
20625 kPa | 737.8 ± 2
20650 kPa | 737.9 ± 2
20667 kPa | 737.9 ± 2
20683 kPa | 737.9 ± 2
20706 kPa | 738 ± 2
20728 kPa | 737.9 ± 2
20745 kPa | 738 ± 2
20764 kPa | 738 ± 2
20787 kPa | 738.1 ± 2
20810 kPa | 738 ± 2
20827 kPa | 738 ± 2
20846 kPa | 738 ± 2
20863 kPa | 738 ± 2
20880 kPa | 738 ± 2
20897 kPa | 738 ± 2
20911 kPa | 738.1 ± 2
